Data on one compound can be found in publication PMC1192819, “Molecular cloning and characterization of a nuclear androgen receptor activated by 11-ketotestosterone” (Reproductive biology and endocrinology : RB&E, 2005).

The target of assay [1] is T1, AR in stickleback kidney cytosolic extracts (Gasterosteus aculeatus, UniProt Q801Z1).
T1 sequence (Q801Z1 1-682): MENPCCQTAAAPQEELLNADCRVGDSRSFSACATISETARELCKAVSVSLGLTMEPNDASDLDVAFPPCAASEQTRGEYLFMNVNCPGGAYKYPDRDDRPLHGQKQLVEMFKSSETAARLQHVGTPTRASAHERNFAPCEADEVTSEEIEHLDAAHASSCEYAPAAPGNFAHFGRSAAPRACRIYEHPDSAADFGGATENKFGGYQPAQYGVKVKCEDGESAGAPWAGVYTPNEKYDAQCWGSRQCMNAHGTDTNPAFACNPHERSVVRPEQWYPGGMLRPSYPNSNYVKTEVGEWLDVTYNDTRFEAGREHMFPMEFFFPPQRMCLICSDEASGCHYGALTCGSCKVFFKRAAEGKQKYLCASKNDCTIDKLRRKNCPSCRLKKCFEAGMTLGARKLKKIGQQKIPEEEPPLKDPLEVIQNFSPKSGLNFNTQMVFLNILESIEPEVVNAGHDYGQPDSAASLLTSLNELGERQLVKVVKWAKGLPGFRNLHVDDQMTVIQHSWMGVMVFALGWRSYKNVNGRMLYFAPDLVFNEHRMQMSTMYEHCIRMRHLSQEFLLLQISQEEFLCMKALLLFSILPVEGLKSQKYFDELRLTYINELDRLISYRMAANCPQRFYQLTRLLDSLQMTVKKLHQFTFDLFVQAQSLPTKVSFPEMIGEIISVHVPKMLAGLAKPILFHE
The assay can be described thus: Ligand competition assay with 1 nM [3H]-DHT, kidney cytosolic extracts. As to conditions: overnight 4°C, read-out: EC50 (competition for [3H]-DHT binding). It counts as binding, three-spined stickleback (Gasterosteus aculeatus). How it is done: (§1) The steroid specificity of receptor binding was examined using a competitive binding assay. […] Following incubation, the reaction was terminated by addition of DCC and centrifugation and the specific binding in each tube was determined as described above.

In assay [2] the target is T2, stickleback ARβ2 (reticulocyte lysate) (Gasterosteus aculeatus, UniProt Q801Z2).
T2 sequence (Q801Z2 1-735): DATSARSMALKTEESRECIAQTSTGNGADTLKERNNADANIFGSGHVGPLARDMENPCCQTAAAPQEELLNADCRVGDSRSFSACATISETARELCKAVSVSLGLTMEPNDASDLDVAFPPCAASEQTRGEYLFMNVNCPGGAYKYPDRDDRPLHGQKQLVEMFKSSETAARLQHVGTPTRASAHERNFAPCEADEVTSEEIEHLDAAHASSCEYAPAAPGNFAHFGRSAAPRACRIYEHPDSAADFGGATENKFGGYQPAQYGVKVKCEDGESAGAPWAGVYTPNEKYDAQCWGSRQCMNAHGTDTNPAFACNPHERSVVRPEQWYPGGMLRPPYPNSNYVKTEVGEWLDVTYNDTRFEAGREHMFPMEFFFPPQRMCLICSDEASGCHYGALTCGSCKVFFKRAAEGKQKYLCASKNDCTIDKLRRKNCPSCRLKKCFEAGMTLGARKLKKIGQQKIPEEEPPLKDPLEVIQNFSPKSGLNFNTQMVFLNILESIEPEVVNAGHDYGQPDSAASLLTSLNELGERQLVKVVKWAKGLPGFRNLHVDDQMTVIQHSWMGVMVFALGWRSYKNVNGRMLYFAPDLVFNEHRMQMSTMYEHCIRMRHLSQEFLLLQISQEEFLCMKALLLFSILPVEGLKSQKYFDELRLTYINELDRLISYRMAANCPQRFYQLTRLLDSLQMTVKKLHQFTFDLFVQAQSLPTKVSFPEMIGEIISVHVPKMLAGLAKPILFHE
The assay can be described thus: Ligand competition assay with 1 nM [3H]-DHT, ARβ2 containing reticulocyte extract. Format: binding, three-spined stickleback (Gasterosteus aculeatus). As to conditions: read-out: EC50 (competition for [3H]-DHT binding). On the procedure:
The excised AR pBK CMV clones were digested with XbaI and EcoRI and the inserts were gel purified prior to ligation into the pCMV-TNT vector (Promega) between XbaI and EcoRI. […] AR was expressed by introducing the pCMV-TNT into the TNT coupled reticulocyte lysate system (Promega) according to the manufacturer's instructions. The size of the expressed products was determined by addition of S^35-methionin to the reticulocyte lysate system. The obtained protein suspension was analyzed on a denaturing 8% SDS PAGE and the sizes were determined using prestained SDS-PAGE broad range protein molecular weight standard (Bio-Rad) and a control luciferase protein of 62 kDa included in the reticulocyte lysate system (Promega). For use in binding assays AR was expressed in the absence of radioactive S^35-methionein and stored at 4°C until further used in recombinant binding assay experiments.
as §1

A further assay deals with stickleback ARβ2. Put plainly: ARE-luciferase trans-activation assay, stickleback ARβ2 in transfected HepG2 and ZFL cells. As to conditions: for induction of luciferase activity: 40 h, versus control. It counts as cell-based, three-spined stickleback (Gasterosteus aculeatus). How it is done: Two liver epithelial cell lines were used to test receptor activity. HepG2 cells (ATCC, Manassas, VA) were maintained in DMEM supplemented with 10% FCS and non-essential amino acids. ZFL cells (ATCC) were maintained in 50% L-15 Leibovitz, 15% […] and 35% DMEM supplemented with 10% FCS (Gibco, Paisley, Scotland, UK) and 50 ng ml-1 EGF (Sigma). Cells were cultured at 37°C (HepG2) or 28°C (ZFL) in 5% CO2. The transfection experiments were initiated by replacing the tissue culture medium with fresh phenol-free medium supplemented with charcoal stripped FCS and the cells were seeded on 24-well plates. Transfections were performed at 90–95% confluence using 1,5 μl Lipofectamine 2000 (Invitrogen, Carlsbad, CA, USA) and 0,6 μg DNA per well. Transfected DNA contained 60 ng pRL (Promega), 270 ng androgen response element (ARE) luciferase reporter vector, 270 ng stickleback ARβ2 expression vector or 270 ng human AR expression vector (pCMVhAR) while 270 ng empty TNT cloning vector was used to control background luciferase levels following transfections. Two different ARE containing promoter constructs were tested, one containing 3 separate ARE (HRE; slp-ARU) and a second one construct (slp-HRE2) containing 4 copies of the ARE with high affinity for R1881, a synthetic androgen, and low affinity for dexamethasone, a synthetic glucocorticoid.
After 16 h the transfection medium was replaced with fresh phenol-free medium, supplemented with charcoal stripped FCS, containing different steroid hormones. The cells were exposed to the hormones for 40 h and luciferase levels were detected using the Dual Luciferase Assay kit (Promega) in a TD 20/20 Luminometer (Turner Designs, Sunnyvale, CA). For each cell line, transfection assay was performed for each concentration with n = 4 and the luciferase value of each assay were normalized to its corresponding Renilla luciferase activity. Each experiment was repeated a minimum of 3 times. The fold-induction is presented as luciferase values normalized against the control. The control levels were arbitrarily set to 1.0 for each cell line.

The subject of the next assay is rainbow trout ARα. To be noted: COS-1 cell line; read-out: IC50 (ligand binding); cited from earlier work.

In the case of `C[C@]12CC(=O)[C@H]3[C@@H](CCC4=CC(=O)CC[C@@]43C)[C@@H]1CC[C@@H]2O` [KT, 11-ketotestosterone], the figures for the EC50 in assay [1] and in assay [2] were 42.8 ± 3.42 nM and 2.18 ± 0.71 nM, respectively. The entries for the “induction of luciferase activity” value in the assay with stickleback ARβ2 (HepG2 cells) and with stickleback ARβ2 (ZFL cells) were 10 fold and 12 fold, respectively. The “potency in activating the luciferase reporter gene relative to DHT” value in the assay with stickleback ARβ2 (HepG2 or ZFL cells, slp-ARU or slp-ARE reporter) turned out to be 3 fold. Besides, the “activation of stickleback AR compared with other androgens” value in the assay with stickleback ARβ2 (ZFL cells, 10^-8 M of each steroid) is given as “preferentially activated”. For the same compound, the IC50 – broadly, the point on the concentration scale where inhibition reaches its midpoint – in the assay on rainbow trout ARα is 8 nM.
